In patent publication US12617812B2, “Platinum(IV) complexes, methods of manufacture, compositions containing, and methods of use thereof” (City University of Hong Kong, priority 2021, dated 2026):

What was measured:
[1] = tested on: Human ovarian carcinoma A2780 cells; assay: MTT cytotoxicity test, A2780 cells; assay type: cell-based; settings: 6 h treatment
Experimental: (§1) Human lung carcinoma A549 cells (American Type Culture Collection, ATCC), and cisplatin-resistant A549cisR cells (American Type Culture Collection, ATCC) are cultured in DMEM with 10% FBS and 100 µg/mL penicillin/streptomycin. Human ovarian carcinoma A2780 and cisplatin-resistant A2780cisR cells are cultured in RPMI-1640 with 10% FBS, 1% L-Glutamine, and 100 µg/mL penicillin/streptomycin. Human lung fibroblast MRC-5 cells (American Type Culture Collection, ATCC) are cultured in MEM with 10% FBS, 1% NEAA, 1% L-Glutamine, 1% sodium pyruvate, and 100 µg/mL penicillin/streptomycin. For A2780cisR and A549cisR cells, 2 μM of cisplatin is added into the culture medium after the attachment to maintain the resistance. All the cells are cultured at 37° C. in 5% CO2.
(§2) The cytotoxic profiles of the various complexes against selected cell lines are obtained by a 3-(4,5-Dimethylthiazol-2-yl)-2,5-diphenyltetrazolium bromide (MTT) assay. Cells are seeded into 96-well plates at a density of 2,500 cells per well (for A549, and A2780) or 5,000 cells per well (for A549cisR, A2780cisR, and MRC-5) and incubated for 24 h. Cells are then treated with medium containing various concentrations of complexes for 6 h. The medium is replaced by phenol-red free medium. Then cells are irradiated with near-infrared radiation (880 nm, 0.4 W/cm^2) for 80 min. After irradiation, cells are further incubated in fresh medium for 18 h at 37° C. Then, the culture medium is removed, cells are then incubated with FBS free medium containing 1 mg/mL MTT for 2 h. Medium containing MTT is removed and 150 μL DMSO is added to each well. The absorbance is measured at 570 and 630 nm. […]

[2] = tested on: cisplatin-resistant A2780cisR cells; assay: MTT cytotoxicity test, A2780cisR cells; assay type: cell-based, Human; settings: 6 h treatment
Experimental: as §1, §2

[3] = tested on: Human lung carcinoma A549 cells; assay: MTT cytotoxicity test, A549 cells; assay type: cell-based; settings: 6 h treatment
Experimental: as §1, §2

[4] = tested on: cisplatin-resistant A549cisR cells; assay: MTT cytotoxicity test, A549cisR cells; assay type: cell-based, Human; settings: 6 h treatment
Experimental: as §1, §2

[5] = tested on: Human lung fibroblast MRC-5 cells; assay: MTT cytotoxicity test, MRC-5 cells; assay type: cell-based; settings: in the dark with no irradiation, 6 h treatment
Experimental: as §1
The cytotoxic profiles of the various complexes against selected cell lines are obtained by a 3-(4,5-Dimethylthiazol-2-yl)-2,5-diphenyltetrazolium bromide (MTT) assay. Cells are seeded into 96-well plates at a density of 2,500 cells per well (for A549, and A2780) or 5,000 cells per well (for A549cisR, A2780cisR, and MRC-5) and incubated for 24 h. Cells are then treated with medium containing various concentrations of complexes for 6 h. The medium is replaced by phenol-red free medium. Then cells are irradiated with near-infrared radiation (880 nm, 0.4 W/cm^2) for 80 min. After irradiation, cells are further incubated in fresh medium for 18 h at 37° C. Then, the culture medium is removed, cells are then incubated with FBS free medium containing 1 mg/mL MTT for 2 h. Medium containing MTT is removed and 150 μL DMSO is added to each well. The absorbance is measured at 570 and 630 nm.
Cells are treated with the indicated complex for 6 h, the culture medium is replaced with fresh medium and irradiated with or without blue light for 1 h. Then cells are cultured for another 42 h.

[6] = in the dark with no irradiation
[7] = mark * (dark), position of the irradiated row
[8] = A2780cisR*, in the dark with no irradiation
[9] = A549*, in the dark with no irradiation
[10] = A549cisR*, in the dark with no irradiation

| Compound | IC50 [1, 6] [µM] | IC50 [1, 7] [µM] | IC50 ([2]; A2780cisR**, with irradiation) [µM] | IC50 [2, 8] [µM] | IC50 ([3]; A549**, with irradiation) [µM] | IC50 [3, 9] [µM] | IC50 ([4]; A549cisR**, with irradiation) [µM] | IC50 [4, 10] [µM] | IC50 [5] [µM] |
| --- | --- | --- | --- | --- | --- | --- | --- | --- | --- |
| O=C1[O][Pt]2([NH][C@@H]3CCCC[C@H]3[NH]2)[O]C1=O [Oxaliplatin, reference compound] | 86.5 ± 7.7 | 73.7 ± 5.9 | 254 ± 18.2 | 250 ± 12.6 | 104 ± 8.2 | 97.2 ± 7.5 | 269 ± 16.3 | 258 ± 11.6 | 213 ± 16.4 |
| N.N.O=C([O-])C1(C(=O)[O-])CCC1.[Pt+2] [Carboplatin, reference compound] | 303 ± 34.8 | 336 ± 43.8 | 630 ± 43.2 | 668 ± 51.1 | 435 ± 42.9 | 418 ± 33.6 | > 700 | > 700 | 690 ± 38.5 |
| CCN(CC)c1ccc2cc(C(=O)/C=C/c3ccc(N(C)CCC(=O)[O][Pt]4([NH2])([NH2])([O]C(=O)Cc5cccc6c(=O)c7ccc(C)c(C)c7oc56)[O]C(=O)C5(CCC5)C(=O)[O]4)cc3)c(=O)oc2c1 [Complex 6] | > 50 | 11.4 ± 1.5 | 12.7 ± 1.9 | > 50 | 11.6 ± 1.2 | > 50 | 12.6 ± 2.1 | > 50 | > 50 |
| CCN(CC)c1ccc2cc(C(=O)/C=C/c3ccc(N(C)CCC(=O)[O][Pt]4([NH2])([NH2])([OH])[O]C(=O)C5(CCC5)C(=O)[O]4)cc3)c(=O)oc2c1 [Complex 4] | > 50 | 10.7 ± 2.2 | 11.2 ± 2.8 | > 50 | 17.7 ± 5.1 | > 50 | 18.9 ± 4.3 | > 50 | > 50 |
